In the CheMixHub viscosity set:
Values joined by “and” are separate entries in the source; they are usually repeats but may differ in a detail not shown here. Identical values can stand only once. ± gives the uncertainty stated by the source.

Test: xn = mol fraction of the nth substance listed

CCCC(C)C + COC(C)(C)C
viscosity (298.15 K, 101.33 kPa, x2 = 0.0969): 0.2794 ± 0.003 mPa·s
viscosity (298.15 K, 101.33 kPa, x2 = 0.2016): 0.2825 ± 0.003 mPa·s
viscosity (298.15 K, 101.33 kPa, x2 = 0.3021): 0.2858 ± 0.0031 mPa·s
viscosity (298.15 K, 101.33 kPa, x2 = 0.4006): 0.2902 ± 0.0031 mPa·s
viscosity (298.15 K, 101.33 kPa, x2 = 0.5007): 0.2956 ± 0.0032 mPa·s
viscosity (298.15 K, 101.33 kPa, x2 = 0.5985): 0.3014 ± 0.0033 mPa·s
viscosity (298.15 K, 101.33 kPa, x2 = 0.6965): 0.3079 ± 0.0034 mPa·s
viscosity (298.15 K, 101.33 kPa, x2 = 0.7978): 0.3154 ± 0.0035 mPa·s
viscosity (298.15 K, 101.33 kPa, x2 = 0.8845): 0.3228 ± 0.0036 mPa·s

Clc1ccccc1 + C1CCCCC1
viscosity (293.65 K, 101.33 kPa, x2 = 0.497): 0.834 ± 0.0097 mPa·s
viscosity (293.85 K, 101.33 kPa, x2 = 0.7): 0.8665 ± 0.01 mPa·s
viscosity (294.25 K, 101.33 kPa, x2 = 0.3): 0.8152 ± 0.0094 mPa·s
viscosity (294.55 K, 101.33 kPa, x2 = 0.4): 0.819 ± 0.0095 mPa·s
viscosity (294.75 K, 101.33 kPa, x2 = 0.2): 0.8056 ± 0.0093 mPa·s
viscosity (294.85 K, 101.33 kPa, x2 = 0.8): 0.889 ± 0.01 mPa·s
viscosity (295.15 K, 101.33 kPa, x2 = 0.6): 0.8189 ± 0.0096 mPa·s
viscosity (297.15 K, 101.33 kPa, x2 = 0.1): 0.7894 ± 0.0092 mPa·s
viscosity (303.05 K, 101.33 kPa, x2 = 0.3): 0.738 ± 0.0085 mPa·s
viscosity (303.25 K, 101.33 kPa, x2 = 0.7): 0.7564 ± 0.0088 mPa·s
viscosity (303.25 K, 101.33 kPa, x2 = 0.8): 0.7829 ± 0.0091 mPa·s
viscosity (303.45 K, 101.33 kPa, x2 = 0.1): 0.731 ± 0.0084 mPa·s
viscosity (303.75 K, 101.33 kPa, x2 = 0.2): 0.7191 ± 0.0083 mPa·s
viscosity (303.85 K, 101.33 kPa, x2 = 0.4): 0.7276 ± 0.0084 mPa·s
viscosity (303.85 K, 101.33 kPa, x2 = 0.6): 0.7319 ± 0.0088 mPa·s
viscosity (303.95 K, 101.33 kPa, x2 = 0.497): 0.7249 ± 0.0084 mPa·s
viscosity (308.15 K, 101 kPa, x2 = 0.0465): 0.6656 ± 0.011 mPa·s
viscosity (308.15 K, 101 kPa, x2 = 0.1818): 0.6489 ± 0.011 mPa·s
viscosity (308.15 K, 101 kPa, x2 = 0.2516): 0.6418 ± 0.011 mPa·s
viscosity (308.15 K, 101 kPa, x2 = 0.3629): 0.6379 ± 0.011 mPa·s
viscosity (308.15 K, 101 kPa, x2 = 0.4845): 0.6421 ± 0.011 mPa·s
viscosity (308.15 K, 101 kPa, x2 = 0.5788): 0.6489 ± 0.011 mPa·s
viscosity (308.15 K, 101 kPa, x2 = 0.6926): 0.6668 ± 0.011 mPa·s
viscosity (308.15 K, 101 kPa, x2 = 0.807): 0.6991 ± 0.012 mPa·s
viscosity (308.15 K, 101 kPa, x2 = 0.9588): 0.7386 ± 0.013 mPa·s
viscosity (312.65 K, 101.33 kPa, x2 = 0.1): 0.6777 ± 0.0078 mPa·s
viscosity (312.75 K, 101.33 kPa, x2 = 0.497): 0.6502 ± 0.0075 mPa·s
viscosity (312.75 K, 101.33 kPa, x2 = 0.7): 0.666 ± 0.0077 mPa·s
viscosity (312.95 K, 101.33 kPa, x2 = 0.4): 0.6505 ± 0.0075 mPa·s
viscosity (312.95 K, 101.33 kPa, x2 = 0.6): 0.5637 ± 0.0066 mPa·s
viscosity (313.15 K, 101 kPa, x2 = 0.0465): 0.6298 ± 0.011 mPa·s
viscosity (313.15 K, 101 kPa, x2 = 0.1818): 0.6122 ± 0.011 mPa·s
viscosity (313.15 K, 101 kPa, x2 = 0.2516): 0.6045 ± 0.011 mPa·s
viscosity (313.15 K, 101 kPa, x2 = 0.3629): 0.5973 ± 0.01 mPa·s
viscosity (313.15 K, 101 kPa, x2 = 0.4845): 0.601 ± 0.01 mPa·s
viscosity (313.15 K, 101 kPa, x2 = 0.5788): 0.6074 ± 0.011 mPa·s
viscosity (313.15 K, 101 kPa, x2 = 0.6926): 0.6254 ± 0.011 mPa·s
viscosity (313.15 K, 101 kPa, x2 = 0.807): 0.6532 ± 0.011 mPa·s
viscosity (313.15 K, 101 kPa, x2 = 0.9588): 0.689 ± 0.012 mPa·s
viscosity (313.25 K, 101.33 kPa, x2 = 0.2): 0.6448 ± 0.0074 mPa·s
viscosity (313.45 K, 101.33 kPa, x2 = 0.3): 0.6518 ± 0.0075 mPa·s
viscosity (313.75 K, 101.33 kPa, x2 = 0.8): 0.6758 ± 0.0079 mPa·s
viscosity (322.55 K, 101.33 kPa, x2 = 0.497): 0.5847 ± 0.0068 mPa·s
viscosity (322.55 K, 101.33 kPa, x2 = 0.6): 0.585 ± 0.0066 mPa·s
viscosity (322.75 K, 101.33 kPa, x2 = 0.3): 0.591 ± 0.0068 mPa·s
viscosity (322.75 K, 101.33 kPa, x2 = 0.4): 0.5803 ± 0.0067 mPa·s
viscosity (322.85 K, 101.33 kPa, x2 = 0.7): 0.5926 ± 0.0069 mPa·s
viscosity (322.85 K, 101.33 kPa, x2 = 0.8): 0.6059 ± 0.007 mPa·s

Clc1ccccc1 + COC(C)(C)C
viscosity (293.15 K, 101.33 kPa, x2 = 0.0948): 0.7752 ± 0.041 mPa·s
viscosity (293.15 K, 101.33 kPa, x2 = 0.1898): 0.7379 ± 0.039 mPa·s
viscosity (293.15 K, 101.33 kPa, x2 = 0.2929): 0.6754 ± 0.036 mPa·s
viscosity (293.15 K, 101.33 kPa, x2 = 0.3832): 0.6443 ± 0.034 mPa·s
viscosity (293.15 K, 101.33 kPa, x2 = 0.4974): 0.5825 ± 0.031 mPa·s
viscosity (293.15 K, 101.33 kPa, x2 = 0.6209): 0.5368 ± 0.028 mPa·s
viscosity (293.15 K, 101.33 kPa, x2 = 0.7014): 0.4905 ± 0.026 mPa·s
viscosity (293.15 K, 101.33 kPa, x2 = 0.8089): 0.456 ± 0.024 mPa·s
viscosity (293.15 K, 101.33 kPa, x2 = 0.9102): 0.4191 ± 0.022 mPa·s
viscosity (298.15 K, 101.33 kPa, x2 = 0.0948): 0.7335 ± 0.039 mPa·s
viscosity (298.15 K, 101.33 kPa, x2 = 0.1898): 0.6981 ± 0.037 mPa·s
viscosity (298.15 K, 101.33 kPa, x2 = 0.2929): 0.6506 ± 0.034 mPa·s
viscosity (298.15 K, 101.33 kPa, x2 = 0.3832): 0.6036 ± 0.032 mPa·s
viscosity (298.15 K, 101.33 kPa, x2 = 0.4974): 0.5697 ± 0.03 mPa·s
viscosity (298.15 K, 101.33 kPa, x2 = 0.6209): 0.5019 ± 0.027 mPa·s
viscosity (298.15 K, 101.33 kPa, x2 = 0.7014): 0.4658 ± 0.025 mPa·s
viscosity (298.15 K, 101.33 kPa, x2 = 0.8089): 0.4246 ± 0.023 mPa·s
viscosity (298.15 K, 101.33 kPa, x2 = 0.9102): 0.3945 ± 0.021 mPa·s

CCc1ccccc1 + CCCCCC
viscosity (298.15 K, 101 kPa, x2 = 0.14): 0.56 ± 0.015 mPa·s
viscosity (298.15 K, 101 kPa, x2 = 0.247): 0.51 ± 0.014 mPa·s
viscosity (298.15 K, 101 kPa, x2 = 0.337): 0.47 ± 0.013 mPa·s
viscosity (298.15 K, 101 kPa, x2 = 0.486): 0.416 ± 0.012 mPa·s
viscosity (298.15 K, 101 kPa, x2 = 0.731): 0.339 ± 0.009 mPa·s
viscosity (308.15 K, 101 kPa, x2 = 0.14): 0.499 ± 0.014 mPa·s
viscosity (308.15 K, 101 kPa, x2 = 0.247): 0.454 ± 0.013 mPa·s
viscosity (308.15 K, 101 kPa, x2 = 0.337): 0.421 ± 0.012 mPa·s
viscosity (308.15 K, 101 kPa, x2 = 0.486): 0.371 ± 0.01 mPa·s
viscosity (308.15 K, 101 kPa, x2 = 0.641): 0.326 ± 0.009 mPa·s
viscosity (308.15 K, 101 kPa, x2 = 0.731): 0.302 ± 0.008 mPa·s
viscosity (323.15 K, 101 kPa, x2 = 0.14): 0.426 ± 0.012 mPa·s
viscosity (323.15 K, 101 kPa, x2 = 0.247): 0.39 ± 0.011 mPa·s
viscosity (323.15 K, 101 kPa, x2 = 0.337): 0.363 ± 0.01 mPa·s
viscosity (323.15 K, 101 kPa, x2 = 0.486): 0.321 ± 0.009 mPa·s
viscosity (323.15 K, 101 kPa, x2 = 0.641): 0.283 ± 0.008 mPa·s
viscosity (323.15 K, 101 kPa, x2 = 0.731): 0.263 ± 0.007 mPa·s

CC(O)C(=O)O (stereo unspecified) + C[N+](C)(C)CCO.[Cl-]
viscosity (293.15 K, 100 kPa, x2 = 0.1): 92.67 ± 4.1 mPa·s
viscosity (293.15 K, 100 kPa, x2 = 0.1667): 107.5 ± 4.7 mPa·s
viscosity (293.15 K, 100 kPa, x2 = 0.3333): 229.3 ± 11 mPa·s
viscosity (293.15 K, 100 kPa, x2 = 0.5): 527 ± 28 mPa·s
viscosity (300.15 K, 100 kPa, x2 = 0.1): 52.02 ± 2.2 mPa·s
viscosity (300.15 K, 100 kPa, x2 = 0.1667): 59.99 ± 2.5 mPa·s
viscosity (300.15 K, 100 kPa, x2 = 0.3333): 127 ± 5.5 mPa·s
viscosity (300.15 K, 100 kPa, x2 = 0.5): 276.9 ± 13 mPa·s
viscosity (303.15 K, 101 kPa, x2 = 0.5): 1245 ± 410 mPa·s
viscosity (308.15 K, 101 kPa, x2 = 0.5): 877.3 ± 250 mPa·s
viscosity (313.15 K, 100 kPa, x2 = 0.1): 31.27 ± 1.3 mPa·s
viscosity (313.15 K, 100 kPa, x2 = 0.1667): 35.62 ± 1.5 mPa·s
viscosity (313.15 K, 100 kPa, x2 = 0.3333): 79.44 ± 3.3 mPa·s
viscosity (313.15 K, 100 kPa, x2 = 0.5): 157.6 ± 6.9 mPa·s
viscosity (313.15 K, 101 kPa, x1 = 0.57): 267.5 ± 10 mPa·s
viscosity (313.15 K, 101 kPa, x1 = 0.9): 103.5 ± 2.2 mPa·s
viscosity (313.15 K, 101 kPa, x1 = 0.94): 103.5 ± 2.2 mPa·s
viscosity (313.15 K, 101 kPa, x2 = 0.5): 626.3 ± 160 mPa·s
viscosity (318.15 K, 101 kPa, x2 = 0.5): 452.1 ± 100 mPa·s
viscosity (323.15 K, 100 kPa, x2 = 0.1): 20.21 ± 0.84 mPa·s and 20.21 ± 0.83 mPa·s
viscosity (323.15 K, 100 kPa, x2 = 0.1667): 23.07 ± 0.95 mPa·s
viscosity (323.15 K, 100 kPa, x2 = 0.3333): 51 ± 2 mPa·s
viscosity (323.15 K, 100 kPa, x2 = 0.5): 97.82 ± 4.1 mPa·s
viscosity (323.15 K, 101 kPa, x2 = 0.5): 335.1 ± 65 mPa·s
